Experimental data published in patent US12723063B2, “GIPR-agonist compounds” (Eli Lilly and Company, priority 2019, dated 2026).
*1 amine or outer side, *2 acyl side, *3 side chain or, on linkers, in order; H or OH if unused. Where a SMILES comes first, the peptide text is derived from it. Side-chain parts run from the residue outwards. [ ]: non-standard residue; d: D form. The star is where a group is joined. C20 diacid = O=C(O)CCCCCCCCCCCCCCCCCCC(=O)*; C18 diacid = O=C(O)CCCCCCCCCCCCCCCCC(=O)*; αMePhe(2-F) = C[C@](N)(Cc1ccccc1F)C(=O)O; γGlu = O=C(O)[C@H](CCC(=O)[*:2])N[*:1]; αMeL = CC(C)C[C@](C)(N)C(=O)O; AEEA = NCCOCCOCC(=O)O; Aib = CC(C)(N)C(=O)O

Target: T1, human GcgR (Homo sapiens, UniProt P47871)
T1 construct: expressed in transfected cells; crude membranes
T1 sequence (P47871 26-477): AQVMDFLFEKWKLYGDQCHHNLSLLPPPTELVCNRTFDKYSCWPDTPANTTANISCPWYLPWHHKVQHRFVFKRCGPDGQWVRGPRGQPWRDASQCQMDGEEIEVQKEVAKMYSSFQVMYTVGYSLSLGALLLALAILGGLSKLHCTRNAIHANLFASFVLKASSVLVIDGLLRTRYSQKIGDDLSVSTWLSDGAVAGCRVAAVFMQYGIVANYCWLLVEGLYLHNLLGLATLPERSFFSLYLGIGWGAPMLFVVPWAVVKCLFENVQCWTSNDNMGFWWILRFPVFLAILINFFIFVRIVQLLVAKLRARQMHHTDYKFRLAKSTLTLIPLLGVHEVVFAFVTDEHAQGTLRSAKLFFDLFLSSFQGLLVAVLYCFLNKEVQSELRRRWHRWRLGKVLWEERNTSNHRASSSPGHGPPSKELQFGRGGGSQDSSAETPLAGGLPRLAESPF
Assay: [125I]-Glucagon binding, SPA with WGA beads, 0.1% bacitracin
Details: geometric mean, read-out: hGcgR Ki
Outline: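 SPA competition binding with WGA beads on crude membranes from HEK293 cells stably expressing hGcgR. Buffer: 25 mM HEPES pH 7.4, 2.5 mM CaCl2, 1 mM MgCl2, 0.1% bacitracin, 0.003% Tween-20; 10-point 3-fold dilutions, NSB with 1 μM Gcg.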

Row | Compound | Ki [nM]
1 | CC[C@H](C)[C@H](NC(=O)[C@H](CO)NC(=O)[C@H](Cc1ccc(O)cc1)NC(=O)[C@H](CC(=O)O)NC(=O)[C@H](CO)NC(=O)[C@@H](NC(=O)[C@H](CC(C)C)NC(=O)[C@@H](NC(=O)CNC(=O)[C@H](CCC(=O)O)NC(=O)[C@@H](C)NC(=O)[C@@H](N)Cc1ccc(O)cc1)[C@@H](C)O)[C@@H](C)CC)C(=O)N[C@@H](CC(C)C)C(=O)N[C@@H](CC(C)C)C(=O)N[C@@H](CC(=O)O)C(=O)N[C@@H](CCCCN)C(=O)N[C@@H](CCCCNC(=O)COCCOCCNC(=O)COCCOCCNC(=O)CC[C@H](NC(=O)CCCCCCCCCCCCCCCCC(=O)O)C(=O)O)C(=O)N[C@@H](C)C(=O)N[C@@H](CCC(N)=O)C(=O)NC(C)(C)C(=O)N[C@@H](CC(=O)O)C(=O)N[C@@H](Cc1ccccc1)C(=O)N[C@H](C(=O)N[C@@H](CC(N)=O)C(=O)N[C@@H](Cc1c[nH]c2ccccc12)C(=O)N[C@@H](CC(C)C)C(=O)N[C@@H](CC(C)C)C(=O)N[C@@H](C)C(=O)N[C@@H](CCC(N)=O)C(=O)NCC(=O)N1CCC[C@H]1C(=O)N[C@@H](CO)C(=O)N[C@@H](CO)C(=O)NCC(=O)N[C@@H](C)C(=O)N1CCC[C@H]1C(=O)N1CCC[C@H]1C(=O)N1CCC[C@H]1C(=O)N[C@@H](CO)C(N)=O)C(C)C [Example 32] (H-Y[dA]EGTLISDYSILLDKK([AEEA-AEEA-γGlu-C18 diacid])AQ[Aib]DFVNWLLAQGPSSGAPPPS-NH2) | > 959
2 | CC[C@H](C)[C@H](NC(=O)[C@H](CO)NC(=O)[C@H](Cc1ccc(O)cc1)NC(=O)[C@H](CC(=O)O)NC(=O)[C@H](CO)NC(=O)[C@@H](NC(=O)[C@](C)(Cc1ccccc1F)NC(=O)[C@@H](NC(=O)CNC(=O)[C@H](CCC(=O)O)NC(=O)[C@H](C)NC(=O)[C@@H](Cc1ccc(O)cc1)NC(C)=O)[C@@H](C)O)[C@@H](C)CC)C(=O)N[C@@H](C)C(=O)N[C@@H](CC(C)C)C(=O)N[C@@H](CC(=O)O)C(=O)N[C@@H](CCCCN)C(=O)N[C@@H](CCCCNC(=O)COCCOCCNC(=O)COCCOCCNC(=O)CC[C@H](NC(=O)CCCCCCCCCCCCCCCCCCC(=O)O)C(=O)O)C(=O)N[C@@H](Cc1c[nH]cn1)C(=O)N[C@@H](CCC(N)=O)C(=O)NC(C)(C)C(=O)N[C@@H](CCC(=O)O)C(=O)N[C@@H](Cc1ccccc1)C(=O)N[C@H](C(=O)N[C@@H](CC(N)=O)C(=O)N[C@@H](Cc1ccc(O)cc1)C(=O)N[C@@H](CC(C)C)C(=O)N[C@@H](CC(C)C)C(=O)N[C@@H](CCC(=O)O)C(=O)NCC(=O)NCC(=O)N1CCC[C@H]1C(=O)N[C@@H](CO)C(=O)N[C@@H](CO)C(=O)NCC(=O)N[C@@H](C)C(=O)N1CCC[C@H]1C(=O)N1CCC[C@H]1C(=O)N1CCC[C@H]1C(=O)N[C@@H](CO)C(N)=O)C(C)C [Example 33] (Ac-[dY]AEGT[αMePhe(2-F)]ISDYSIALDKK([AEEA-AEEA-γGlu-C20 diacid])HQ[Aib]EFVNYLLEGGPSSGAPPPS-NH2) | 63.5
3 | CC[C@H](C)[C@H](NC(=O)[C@H](CO)NC(=O)[C@H](Cc1ccc(O)cc1)NC(=O)[C@H](CC(=O)O)NC(=O)[C@H](CO)NC(=O)[C@@H](NC(=O)[C@](C)(Cc1ccccc1F)NC(=O)[C@@H](NC(=O)CNC(=O)[C@H](CCC(=O)O)NC(=O)C(C)(C)NC(=O)[C@@H](N)Cc1ccc(O)cc1)[C@@H](C)O)[C@@H](C)CC)C(=O)N[C@@H](C)C(=O)N[C@@H](CC(C)C)C(=O)N[C@@H](CC(=O)O)C(=O)N[C@@H](CCCCN)C(=O)N[C@@H](CCCCNC(=O)COCCOCCNC(=O)COCCOCCNC(=O)CC[C@H](NC(=O)CCCCCCCCCCCCCCCCCCC(=O)O)C(=O)O)C(=O)N[C@@H](Cc1c[nH]cn1)C(=O)N[C@@H](CCC(N)=O)C(=O)NC(C)(C)C(=O)N[C@@H](CCC(=O)O)C(=O)N[C@@H](Cc1ccccc1)C(=O)N[C@H](C(=O)N[C@@H](CC(N)=O)C(=O)N[C@@H](Cc1ccc(O)cc1)C(=O)N[C@@H](CC(C)C)C(=O)N[C@@H](CC(C)C)C(=O)N[C@@H](C)C(=O)N[C@H](C(=O)NCC(=O)N1CCC[C@H]1C(=O)N[C@@H](CO)C(=O)N[C@@H](CO)C(=O)NCC(=O)N[C@@H](C)C(=O)N1CCC[C@H]1C(=O)N1CCC[C@H]1C(=O)N1CCC[C@H]1C(=O)N[C@@H](CO)C(N)=O)[C@@H](C)O)C(C)C [Example 34] (H-Y[Aib]EGT[αMePhe(2-F)]ISDYSIALDKK([AEEA-AEEA-γGlu-C20 diacid])HQ[Aib]EFVNYLLATGPSSGAPPPS-NH2) | 143
4 | CC[C@H](C)[C@H](NC(=O)[C@H](CO)NC(=O)[C@H](Cc1ccc(O)cc1)NC(=O)[C@H](CC(=O)O)NC(=O)[C@H](CO)NC(=O)[C@@H](NC(=O)[C@](C)(CC(C)C)NC(=O)[C@@H](NC(=O)CNC(=O)[C@H](CCC(=O)O)NC(=O)C(C)(C)NC(=O)[C@@H](N)Cc1ccc(O)cc1)[C@@H](C)O)[C@@H](C)CC)C(=O)N[C@@H](C)C(=O)N[C@@H](CC(C)C)C(=O)N[C@@H](CC(=O)O)C(=O)N[C@@H](CCCCN)C(=O)N[C@@H](CCCCNC(=O)COCCOCCNC(=O)COCCOCCNC(=O)CC[C@H](NC(=O)CCCCCCCCCCCCCCCCCCC(=O)O)C(=O)O)C(=O)N[C@@H](Cc1c[nH]cn1)C(=O)N[C@@H](CCC(N)=O)C(=O)NC(C)(C)C(=O)N[C@@H](CCC(=O)O)C(=O)N[C@@H](Cc1ccccc1)C(=O)N[C@H](C(=O)N[C@@H](CC(N)=O)C(=O)N[C@@H](Cc1ccc(O)cc1)C(=O)N[C@@H](CC(C)C)C(=O)N[C@@H](CC(C)C)C(=O)N[C@@H](C)C(=O)N[C@H](C(=O)NCC(=O)N1CCC[C@H]1C(=O)N[C@@H](CO)C(=O)N[C@@H](CO)C(=O)NCC(=O)N[C@@H](C)C(=O)N1CCC[C@H]1C(=O)N1CCC[C@H]1C(=O)N1CCC[C@H]1C(=O)N[C@@H](CO)C(N)=O)[C@@H](C)O)C(C)C [Example 35] (H-Y[Aib]EGT[αMeL]ISDYSIALDKK([AEEA-AEEA-γGlu-C20 diacid])HQ[Aib]EFVNYLLATGPSSGAPPPS-NH2) | > 960
5 | CC[C@H](C)[C@H](NC(=O)[C@H](CO)NC(=O)[C@H](Cc1ccc(O)cc1)NC(=O)[C@H](CC(=O)O)NC(=O)[C@H](CO)NC(=O)[C@@H](NC(=O)[C@](C)(Cc1ccccc1F)NC(=O)[C@@H](NC(=O)CNC(=O)[C@H](CCC(=O)O)NC(=O)C(C)(C)NC(=O)[C@@H](N)Cc1ccc(O)cc1)[C@@H](C)O)[C@@H](C)CC)C(=O)N[C@@H](C)C(=O)N[C@@H](CC(C)C)C(=O)N[C@@H](CC(=O)O)C(=O)N[C@@H](CCCCN)C(=O)N[C@@H](CCCCNC(=O)COCCOCCNC(=O)COCCOCCNC(=O)CC[C@H](NC(=O)CCCCCCCCCCCCCCCCCCC(=O)O)C(=O)O)C(=O)N[C@@H](Cc1c[nH]cn1)C(=O)N[C@@H](CCC(N)=O)C(=O)NC(C)(C)C(=O)N[C@@H](CC(=O)O)C(=O)N[C@@H](Cc1ccccc1)C(=O)N[C@H](C(=O)N[C@@H](CCC(=O)O)C(=O)N[C@@H](Cc1ccc(O)cc1)C(=O)N[C@@H](CC(C)C)C(=O)N[C@@H](CC(C)C)C(=O)N[C@@H](CCC(=O)O)C(=O)N[C@H](C(=O)NCC(=O)N1CCC[C@H]1C(=O)N[C@@H](CO)C(=O)N[C@@H](CO)C(=O)NCC(=O)N[C@@H](C)C(=O)N1CCC[C@H]1C(=O)N1CCC[C@H]1C(=O)N1CCC[C@H]1C(=O)N[C@@H](CO)C(N)=O)[C@@H](C)O)C(C)C [Example 36] (H-Y[Aib]EGT[αMePhe(2-F)]ISDYSIALDKK([AEEA-AEEA-γGlu-C20 diacid])HQ[Aib]DFVEYLLETGPSSGAPPPS-NH2) | 201
